These results are taken from patent US8940730B2, “Methods and compositions of treating a Flaviviridae family viral infection” (The Board of Trustees of the Leland Stanford Junior …, priority 2007, dated 2015).

Some results are limits rather than exact numbers.

Data set [1] addresses T1, hERG channel (Homo sapiens, UniProt Q12809).
T1 construct: host or cells: CHO (Chinese Hamster Ovary), stably transfected
Put plainly: HERG channel assay (whole cell patch clamp, CHO cells). In kind it is cell-based. The note with it: CHO cells expressing hERG, tail current. How it is done: Solutions: For electrophysiological recordings, the following solutions were used. External Solution: 2 mM CaCl2; 2 mM MgCl2; 4 mM KCl; 150 mM NaCl; 10 mM Glucose; 10 mM HEPES; 310-320 mOsm; pH 7.4 (adjusted with 1M NaOH). Internal Solution: 140 mM KCl; 10 mM MgCl2; 6 mM EGTA; 5 mM HEPESNa; […]; 300-320 mOsm; pH 7.25 (adjusted with 1M KOH).
Next, 1 μM cisapride (positive control) was added.
Data Analysis: Data analysis was performed using DataXpress (Axon Instruments), Clampfit (Axon Instruments) and Origin (Originlab Corporation) software.
In addition, activity against hERG potassium channel was tested on representative compounds. […] Compounds having a structure similar to that of EBP288 (compounds that contain, in R3, an N-attached heterocycle where substitutions adjacent to the nitrogen are small) should have a similar activity in this assay. […] Compounds having a structure similar to the aforementioned compound (compounds that contain, in R3, a C-attached heterocycle where heteroatom is acylated N) should have a similar activity in this assay. Generally, compounds that show no or only low activity in the hERG assay are preferred.

Data set [2] has as its system Huh7 cell line. Briefly: MTT assay for HCV replicon reporter cell lines (cell toxicity). The format is cell-based. Particulars: Homo sapiens, Huh-7; cell toxicity, MTT, top concentration 25 μM; read-out: Cell Viability EC50. Background: Formazan colour is commonly taken as a measure of viable cells.
Data set [3] has as its system HCV 1b RNA replicon. Briefly: Luciferase assay for HCV genotype 1b replicon reporter cell lines. Particulars: Hepatitis C virus, Huh-7, 48 h, read-out: 1b EC50, 1b replicon, Huh7, 48 hours, top concentration 25 μM.
For data set [4], the system named is HCV genotype 2a infectious clone. Put plainly: HCV genotype 2a infectious clone assay (Renilla luciferase). The format is cell-based. Particulars: Hepatitis C virus, read-out: 2a (% activity @ 5 μM), 5 μM; % replication activity of control with no test compound. How it is done: The assays in parts A and B were used to generate the genotype 1b inhibitory activity and related cell toxicity (viability) data supported herein. This assay has been used to generate the genotype 2a inhibitory activity data supported herein.
(§1) 1) Wash cells once with PBS, trypsinize. […] Mix twice by pipeting. […] Make a common stock from all tubes. […] 15) Incubate for 24 hr before treatment.
(§2) 3) Repeat daily for 2 more days.

Data set [5] concerns Huh7.5 cells. The note with it: human, 3 days. As for the experimental part:
as §1, §2
1) Alamar blue assay—a) Include medium for background subtraction (and also for seeing change in color easily). b) Aspirate medium. c) Make a stock of medium plus 10% Alamar blue. Total volume per well is 100 μl. d) Incubate for 2-2.5 hrs at 37° C. (or until there is a color change). c) Read plates at flex station.

T1 sequence (Q12809 whole entry): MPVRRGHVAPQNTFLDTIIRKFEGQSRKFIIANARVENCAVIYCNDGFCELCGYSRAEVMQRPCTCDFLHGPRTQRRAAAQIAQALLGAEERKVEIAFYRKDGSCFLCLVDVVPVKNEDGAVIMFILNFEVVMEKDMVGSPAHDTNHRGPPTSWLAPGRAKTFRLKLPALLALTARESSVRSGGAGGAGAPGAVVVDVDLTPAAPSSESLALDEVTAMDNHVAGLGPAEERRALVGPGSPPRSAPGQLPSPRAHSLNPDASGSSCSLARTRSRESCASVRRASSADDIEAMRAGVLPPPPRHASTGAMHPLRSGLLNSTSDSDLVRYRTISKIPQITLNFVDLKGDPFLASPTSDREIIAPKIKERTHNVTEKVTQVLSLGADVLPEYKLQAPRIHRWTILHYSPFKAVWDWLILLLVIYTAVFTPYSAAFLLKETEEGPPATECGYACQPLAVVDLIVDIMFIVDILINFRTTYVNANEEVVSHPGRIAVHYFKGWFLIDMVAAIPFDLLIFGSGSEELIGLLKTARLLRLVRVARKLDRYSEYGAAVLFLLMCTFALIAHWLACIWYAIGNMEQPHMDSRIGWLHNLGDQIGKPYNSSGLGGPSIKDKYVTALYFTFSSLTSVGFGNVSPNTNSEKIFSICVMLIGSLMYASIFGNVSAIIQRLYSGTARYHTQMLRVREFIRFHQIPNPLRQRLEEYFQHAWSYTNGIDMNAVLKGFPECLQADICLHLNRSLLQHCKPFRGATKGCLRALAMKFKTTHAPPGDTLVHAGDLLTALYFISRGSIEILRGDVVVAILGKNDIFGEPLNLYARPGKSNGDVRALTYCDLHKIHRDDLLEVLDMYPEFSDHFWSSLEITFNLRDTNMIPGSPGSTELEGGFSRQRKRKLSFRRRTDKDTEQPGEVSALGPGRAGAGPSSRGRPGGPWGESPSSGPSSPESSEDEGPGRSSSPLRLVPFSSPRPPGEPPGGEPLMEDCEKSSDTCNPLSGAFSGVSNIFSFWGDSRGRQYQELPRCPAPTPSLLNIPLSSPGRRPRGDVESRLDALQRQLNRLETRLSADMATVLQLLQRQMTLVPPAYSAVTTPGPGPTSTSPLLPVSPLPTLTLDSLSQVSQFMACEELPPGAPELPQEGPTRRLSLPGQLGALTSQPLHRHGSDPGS

The IC50 is the concentration that gives 50% inhibition. Higher therefore signals lower potency. Consider `O[C@@H]1CCN(CCCOc2nn(Cc3ccc(Cl)cc3)c3ccccc23)C1` [EBP393], for which, in data set [1], the IC50 was 0.9 µM. Moreover, the EC50 in data set [2] is above 25 µM; in data set [3] it was 4.5 µM. Further, the activity at 5 µM in data set [4] stood at 42%. Also, the “2a cell viability (@ 5 μM)” value in data set [5] came to 100%.
The like results for `Clc1ccc(Cn2nc(OCCCN3CCC[C@H]3CN3CCCC3)c3ccccc32)cc1` [EBP395] were, in that order, 2 µM, above 25 µM, 4.4 µM, 41% and 89%.
